The values that follow come from patent US10537567B2, “Kinase inhibitors for treatment of disease” (BioAxone BioSciences, Inc., priority 2017, dated 2020).

“Also recorded” adds a separate entry of the source. Some results are limits rather than exact numbers.

One data set has as its system PKA, PKC and CaMKII. Particulars: cited from earlier work.
The conditions of data set [1]: clinical studies; cited from earlier work.
Data set [2] concerns the target T1, ROCK1 (Homo sapiens, UniProt Q13464). In words: DiscoverX kinome screen. The data set is classed as binding. Particulars: 10,000 nM API. The arrangement: are incubated with DNA-tagged kinase domains tagged; DNA tag; purchased DiscoverX. As for the experimental part:
(§1) A 468-target kinome screen and a safety screen were carried out to examine the off-target profiles of different kinase inhibitors (DiscoverX, Freemont, Calif.). The kinome screen is a binding assay where API interference of kinase domain/substrate binding is assessed as percent of control. Less than 10% binding (or >90% binding inhibition) is most biologically relevant and considered as a ‘hit’. BA-2017 only had 7 off-target hits compared to BA-1049 and Netarsudil, which both had 11 hits (Table 1) (Studirvant et al. 2016 Bioorg Med Chem Lett. 26(10):2475-2480). […] Published data for Netarsudil were with 200 times less API. […] The NET activity likely helps to decrease IOP but might increase hyperemia, while the SERT activity might have long-term safety consequences (Costagliola et al. 2004 CNS drugs 18(8): p. 475-484).
(§2) In the kinome screen BA-2017 had fewer off-target hits (Table 1) than BA-1049. […] An interesting hit from the kinome screen was on Abl (Table 1), an oncogene that also regulates many cellular activities, including vascular leakage.
Target sequence in this assay (Q13464 76-338 limits assumed): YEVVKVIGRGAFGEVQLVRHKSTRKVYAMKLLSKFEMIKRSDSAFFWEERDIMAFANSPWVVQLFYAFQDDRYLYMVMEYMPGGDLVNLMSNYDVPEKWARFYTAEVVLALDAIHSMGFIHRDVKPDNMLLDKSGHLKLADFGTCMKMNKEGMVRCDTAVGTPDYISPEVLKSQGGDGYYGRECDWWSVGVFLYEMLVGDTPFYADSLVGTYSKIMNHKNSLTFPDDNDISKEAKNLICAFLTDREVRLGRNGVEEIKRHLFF

For data set [3], the target named is T2, ROCK2 (Homo sapiens, UniProt O75116). Nature of the data set: DiscoverX kinome screen. Particulars: 10,000 nM API. The arrangement: are incubated with DNA-tagged kinase domains tagged; DNA tag; purchased DiscoverX. The class given is binding. How it is done:
as §1, §2
Target sequence in this assay (O75116 92-354 limits assumed): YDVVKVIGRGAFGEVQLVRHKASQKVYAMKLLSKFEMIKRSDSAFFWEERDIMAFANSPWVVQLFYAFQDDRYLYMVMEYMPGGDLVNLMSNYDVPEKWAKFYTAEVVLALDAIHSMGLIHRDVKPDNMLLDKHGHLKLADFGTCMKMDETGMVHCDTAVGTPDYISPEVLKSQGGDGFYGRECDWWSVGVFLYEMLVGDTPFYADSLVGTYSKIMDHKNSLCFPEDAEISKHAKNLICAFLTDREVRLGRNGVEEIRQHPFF

For a further data set, the target named is T3, PKC ε (Homo sapiens, UniProt Q02156).
T3 construct: are incubated with DNA-tagged kinase domains tagged; DNA tag; purchased DiscoverX
In words: DiscoverX kinome screen. Particulars: 10,000 nM API. The data set is classed as binding. How it is done: as §1, §2

The target of a further data set is T4, PKC Δ (Homo sapiens, UniProt Q05655).
T4 construct: are incubated with DNA-tagged kinase domains tagged; DNA tag; purchased DiscoverX
Nature of the data set: DiscoverX kinome screen. The data set is classed as binding. The conditions noted are these: 10,000 nM API. How it is done: as §1, §2

Data set [4] can be described thus: Brain and blood vessel exposure after oral administration. The class given is in vivo, Sprague Dawley rats. How it is done: (§3) Adult Sprague Dawley rats (Charles River Laboratories) were used for this experiment. […] One g of tissue was homogenized in 1 mL of 1×PBS. Homogenates were precipitated by pipetting 200 μL of homogenate into a tube using aseptically cut off 1000 μL pipette tips to prevent clogging. Samples are further diluted with 100 μL PBS to aid in precipitation. 900 μL of cold methanol was added to each sample and samples were vortexed for 5 to 10 seconds. Samples were placed at 4° C. for 30 to 40 min and then centrifuged at 10,000 g for 15 min at 4° C. The supernatant is collected and stored at −80° C. until analyzed.
Pathological angiogenesis that occurs in the retina is a major feature of leading blinding diseases, and particularly associated with diabetic retinopathy and age-related macular degeneration.

Data set [5] concerns the target T2, ROCK2. In words: Direct filter-binding radiometric kinase assay (Eurofins) at Km ATP. The class given is biochemical. The arrangement: purchased Eurofins Testing (Dundee, Scotland, UK). Particulars: for ROCK1/ROCK2 (fold difference): IC50 at respective Km ATP. How it is done:
ROCK1 and ROCK2 IC50 determinations were made using ATP concentrations at the Km ATP of 70 μM and 15 μM for ROCK1 and ROCK2, respectively.
For the data shown in Table 4, IC50 inhibition curves were performed at the respective Km for ATP for both ROCK1 and ROCK2. Performing these assays at the Km of ATP gives a better representation of the inhibitory activity. Other comparisons where differing kinases are tested at a single ATP concentration can potentially misrepresent the comparative efficacy since enzyme inhibitory activity tested below the Km for ATP of the enzyme, produces a circumstance where the enzyme is actually not constantly bound with ATP and the reaction velocity becomes sub-optimal.
Target sequence in this assay (O75116 whole entry, the tested form may be a part): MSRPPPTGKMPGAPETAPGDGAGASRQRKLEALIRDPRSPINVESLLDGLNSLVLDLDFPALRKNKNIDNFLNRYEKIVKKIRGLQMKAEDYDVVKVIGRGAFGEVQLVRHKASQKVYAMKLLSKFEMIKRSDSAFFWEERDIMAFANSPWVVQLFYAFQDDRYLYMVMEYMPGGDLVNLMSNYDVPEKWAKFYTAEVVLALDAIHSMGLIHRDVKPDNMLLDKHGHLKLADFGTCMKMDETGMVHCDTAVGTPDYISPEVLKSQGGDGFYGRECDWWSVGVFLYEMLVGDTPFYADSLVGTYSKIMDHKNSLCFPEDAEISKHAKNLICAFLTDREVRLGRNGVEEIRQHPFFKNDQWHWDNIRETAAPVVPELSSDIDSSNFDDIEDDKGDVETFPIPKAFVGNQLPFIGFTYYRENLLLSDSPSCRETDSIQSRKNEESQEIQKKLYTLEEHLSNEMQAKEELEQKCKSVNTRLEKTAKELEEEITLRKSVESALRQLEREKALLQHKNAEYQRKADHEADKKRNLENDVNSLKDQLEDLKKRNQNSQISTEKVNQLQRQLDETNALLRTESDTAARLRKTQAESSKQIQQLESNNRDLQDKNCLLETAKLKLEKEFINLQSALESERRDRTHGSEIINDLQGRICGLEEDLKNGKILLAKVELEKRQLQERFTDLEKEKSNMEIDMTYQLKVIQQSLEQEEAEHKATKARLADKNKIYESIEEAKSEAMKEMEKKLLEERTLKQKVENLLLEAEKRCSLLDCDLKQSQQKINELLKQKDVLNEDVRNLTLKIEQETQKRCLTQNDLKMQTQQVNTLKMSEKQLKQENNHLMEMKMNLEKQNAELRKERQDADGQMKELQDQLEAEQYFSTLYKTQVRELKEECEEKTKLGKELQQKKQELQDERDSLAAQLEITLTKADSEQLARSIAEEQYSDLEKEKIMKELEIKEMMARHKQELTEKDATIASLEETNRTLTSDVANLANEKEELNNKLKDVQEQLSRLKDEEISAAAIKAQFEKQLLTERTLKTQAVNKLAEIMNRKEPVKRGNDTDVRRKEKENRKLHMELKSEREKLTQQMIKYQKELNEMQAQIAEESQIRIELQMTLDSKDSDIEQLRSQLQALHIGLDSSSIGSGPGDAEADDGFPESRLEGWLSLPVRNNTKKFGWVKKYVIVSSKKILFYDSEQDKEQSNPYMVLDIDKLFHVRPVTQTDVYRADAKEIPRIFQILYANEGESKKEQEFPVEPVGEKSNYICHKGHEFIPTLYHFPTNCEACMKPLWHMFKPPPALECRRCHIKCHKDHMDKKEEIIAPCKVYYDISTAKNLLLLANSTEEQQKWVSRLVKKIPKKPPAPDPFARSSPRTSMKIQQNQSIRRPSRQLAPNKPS

Data set [6] has as its target T5, serotonin transporter (SERT) (Homo sapiens, UniProt P31645).
T5 construct: purchased DiscoverX
In words: Safety screen. The conditions noted are these: 10,000 nM API. The class given is biochemical. As for the experimental part:
as §1
(§4) These targets include GPCRs, transporters, ion channels, nuclear receptors, non-kinase enzymes.

Data set [7] has as its target T6, norepinephrine transporter (NET) (Homo sapiens, UniProt P23975).
T6 construct: purchased DiscoverX
Nature of the data set: Safety screen. Particulars: 10,000 nM API. The data set is classed as biochemical. How it is done: as §1, §4

Another data set has as its target 468-target kinome screen. In words: DiscoverX kinome screen, off-target hits. The conditions noted are these: 10,000 nM API; for # Hits <10% binding: hit = less than 10% binding (>90% binding inhibition). The class given is binding, human. As for the experimental part:
as §1, §2

The nature of data set [8]: Penetration and distribution in ocular tissues after topical instillation (LC-MS). The data set is classed as in vivo, Sprague Dawley rats. The conditions noted are these: topical 3% solution of metabolite, 20 minutes. How it is done: as §3
For the optic nerve sample, the concentration is shown per length of optic nerve (right y-axis). […] Therefore, drug is available in the retina and optic nerve for treating these tissues affected in glaucoma and other retinal diseases.
In FIG. 14 we examined the ability of metabolite to penetrate the ocular tissues of the eye after topical instillation of a 3% solution of metabolite. In comparison with FIG. 13, that also the metabolite has adequate penetration into ocular and CNS tissue. Of particular note is the penetration in the retina and presence in the optic nerve. All compounds were given topically as eye drops to the eye of adult Sprague Dawley rats. Twenty minutes later the indicated tissues were removed and the parent compound and active metabolite were analyzed by LC/MS.

Data set [9] has as its target T2, ROCK2. In words: IC50 determined at 10 μM ATP. The conditions noted are these: for IC50: 10 μM ATP (below Km), * = preliminary. The arrangement: purchased Eurofins Testing (Dundee, Scotland, UK). The data set is classed as biochemical. From the text: The data in Table 2 were obtained at ATP concentration below those corresponding to Km.
Target sequence in this assay (O75116 whole entry, the tested form may be a part): as above
For data set [10], the target named is T7, PKA (Homo sapiens, UniProt P17612). Particulars: cited from earlier work.
For data set [11] the following is noted: cited from earlier work.
A further data set has as its target T8, GRK1 (Homo sapiens, UniProt Q15835).
T8 construct: are incubated with DNA-tagged kinase domains tagged; DNA tag; purchased DiscoverX
T8 sequence (Q15835 190-455 limits assumed): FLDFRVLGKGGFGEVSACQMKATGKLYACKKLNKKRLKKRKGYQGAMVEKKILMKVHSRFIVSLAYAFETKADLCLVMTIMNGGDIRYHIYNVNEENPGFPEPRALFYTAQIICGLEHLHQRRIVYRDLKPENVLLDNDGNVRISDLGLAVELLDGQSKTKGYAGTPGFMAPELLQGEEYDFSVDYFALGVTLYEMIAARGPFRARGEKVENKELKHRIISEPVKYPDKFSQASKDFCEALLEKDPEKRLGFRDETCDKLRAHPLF
Nature of the data set: DiscoverX kinome screen. The data set is classed as binding. As for the experimental part:
as §1, §2

Data set [12] concerns the target T7, PKA. In words: Single dose inhibition assay of key AGC class kinases. The data set is classed as biochemical. Particulars: 10 μM API. As for the experimental part: Molecular modeling and rational drug design were used to create and screen over 50 ROCK inhibitors. These ROCK inhibitors were screened for selectivity for ROCK2 and ability to promote neurite outgrowth. Several lead inhibitors came out of this screen and further screened for inhibition of key AGC class kinases by a single dose inhibition assay performed with 10 μM active pharmaceutical ingredient (API). The lead compound is chiral. […] They have different selectivity for ROCK2 (Table 2) and different off-target profiles (Table 1; FIG. 1).

The target of data set [13] is T1, ROCK1. Nature of the data set: IC50 determined at 10 μM ATP. The class given is biochemical. The arrangement: purchased Eurofins Testing (Dundee, Scotland, UK). The conditions noted are these: 10 μM ATP (below Km).
Data set [14] in a line: Oral dosing of cynomolgus monkeys, systemic side effects. Particulars: 18 mg/kg oral gavage, 4 monkeys. The data set is classed as in vivo. How it is done:
Oral dosing of 4 cynomolgus monkeys dosed with 18 mg/kg oral BA-1049 by oral gavage were completed to understand potential systemic side effects. The only side effects noticed at this dose was squinting by the monkeys.

The conditions of data set [15]: followed 24 months; cited from earlier work.

T6 sequence (P23975 whole entry): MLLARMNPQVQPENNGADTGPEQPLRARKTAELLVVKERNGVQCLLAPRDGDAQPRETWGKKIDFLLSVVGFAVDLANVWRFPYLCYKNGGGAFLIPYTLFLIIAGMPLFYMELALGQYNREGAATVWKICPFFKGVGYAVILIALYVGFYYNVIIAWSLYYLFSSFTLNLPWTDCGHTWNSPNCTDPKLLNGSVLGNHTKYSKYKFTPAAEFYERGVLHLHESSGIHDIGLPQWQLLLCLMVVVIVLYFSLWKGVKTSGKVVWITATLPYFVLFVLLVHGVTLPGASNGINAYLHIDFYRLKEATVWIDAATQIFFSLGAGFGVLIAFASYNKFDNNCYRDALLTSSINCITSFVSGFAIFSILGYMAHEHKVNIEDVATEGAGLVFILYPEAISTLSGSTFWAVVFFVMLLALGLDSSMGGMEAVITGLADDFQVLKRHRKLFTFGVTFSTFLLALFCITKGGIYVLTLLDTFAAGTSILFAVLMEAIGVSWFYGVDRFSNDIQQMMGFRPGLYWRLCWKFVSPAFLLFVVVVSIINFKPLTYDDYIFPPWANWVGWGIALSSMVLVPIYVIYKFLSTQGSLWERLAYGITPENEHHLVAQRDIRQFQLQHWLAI
T3 sequence (Q02156 408-668 limits assumed): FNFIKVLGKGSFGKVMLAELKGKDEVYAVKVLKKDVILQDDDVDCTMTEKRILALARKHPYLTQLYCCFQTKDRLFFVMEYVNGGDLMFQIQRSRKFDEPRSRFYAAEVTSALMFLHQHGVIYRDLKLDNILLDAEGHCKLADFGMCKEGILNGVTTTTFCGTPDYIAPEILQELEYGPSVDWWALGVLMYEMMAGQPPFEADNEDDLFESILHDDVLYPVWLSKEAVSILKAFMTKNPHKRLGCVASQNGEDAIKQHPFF
T4 sequence (Q05655 349-603 limits assumed, stated change not applied): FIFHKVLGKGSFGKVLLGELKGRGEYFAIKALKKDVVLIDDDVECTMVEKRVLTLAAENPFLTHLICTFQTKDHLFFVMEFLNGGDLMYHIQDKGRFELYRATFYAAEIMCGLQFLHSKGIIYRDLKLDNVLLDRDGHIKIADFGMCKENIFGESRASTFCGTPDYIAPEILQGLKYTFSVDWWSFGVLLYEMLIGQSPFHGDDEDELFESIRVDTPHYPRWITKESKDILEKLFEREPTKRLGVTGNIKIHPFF
T5 sequence (P31645 whole entry): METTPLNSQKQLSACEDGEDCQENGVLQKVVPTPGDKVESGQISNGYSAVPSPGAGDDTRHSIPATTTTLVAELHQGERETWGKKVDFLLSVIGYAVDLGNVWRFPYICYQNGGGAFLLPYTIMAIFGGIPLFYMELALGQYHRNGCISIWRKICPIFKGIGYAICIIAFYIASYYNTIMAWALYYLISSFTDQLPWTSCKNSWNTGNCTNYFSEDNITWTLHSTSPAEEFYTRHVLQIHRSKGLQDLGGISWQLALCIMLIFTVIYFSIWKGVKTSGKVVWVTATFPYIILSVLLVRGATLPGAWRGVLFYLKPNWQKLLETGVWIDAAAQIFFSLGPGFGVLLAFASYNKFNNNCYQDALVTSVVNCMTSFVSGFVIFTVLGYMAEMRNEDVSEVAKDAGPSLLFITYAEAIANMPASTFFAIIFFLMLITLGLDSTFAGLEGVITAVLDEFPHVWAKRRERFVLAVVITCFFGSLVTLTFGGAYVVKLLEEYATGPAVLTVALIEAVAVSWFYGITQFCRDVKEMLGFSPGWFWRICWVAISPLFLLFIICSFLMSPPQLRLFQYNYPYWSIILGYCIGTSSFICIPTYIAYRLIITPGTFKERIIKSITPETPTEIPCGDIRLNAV

On to `C[C@H]1CNCCCN1S(=O)(=O)c1cccc2cncc(F)c12` [Ripasudil], for which the “Inhibition of PKA, PKC and CaMKII” value in the data set on PKA, PKC and CaMKII was “both inhibit PKA, PKC and CaMKII”. The “Hyperemia in humans” value in data set [1] was “more frequent and of longer duration than Netarsudil; also recorded: cause hyperemia (red eyes) as a major side effect”.

For the compound `C[C@@H](N)C1CCN(S(=O)(=O)c2cccc3c(=O)[nH]ccc23)CC1` [BA-2017], the “Kinome Screen % inhibition ROCK1” value at ROCK1 [2] was over 99%. The “Kinome Screen % inhibition ROCK2” value at ROCK2 [3] is recorded as over 99%. The “Kinome Screen % inhibition PKC ε” value on PKC ε came to 94.7%. The “Kinome Screen % inhibition PKC Δ” value on PKC Δ is under 85%. Moreover, the “Exposure in blood vessels” value in [4] is on record as “accumulate at high concentrations in blood vessels”. The “ROCK1/ROCK2 (fold difference)” value on ROCK2 [5] is 16.5. In addition, the “Safety Screen % inhibition SERT” value in data set [6] is “none”. Besides, in [7], the “Safety Screen % inhibition NET” value is reported as “none”. Moreover, on 468-target kinome screen, the “Kinome Screen Other (other off-target kinase)” value was “GRK1” and the “# Hits <10% binding” value is on record as 7. In data set [8], the “Penetration into ocular tissues” value is “can penetrate ocular tissue”. In addition, the midpoint of inhibition at ROCK2 [9], the IC50, lay at 50 nM.

As to `C[C@@H](N)[C@H]1CC[C@H](C(=O)Nc2ccncc2)CC1` [Compound Y-27632, Y-27632], the “Binding to PKA” value on PKA [10] is given as “all bind PKA”.

Consider `Cc1ccc(C(=O)OCc2ccc([C@@H](CN)C(=O)Nc3ccc4cnccc4c3)cc2)c(C)c1` [Netarsudil], for which the “Duration of hyperemia on day 1” value in data set [11] (0.04% Netarsudil) is given as “at least 8 hours”. In data set [11] (Dutch belted rabbits), the “Duration of mild hyperemia” value is 4 to 8 h. Also, in data set [1], the “Hyperemia in humans” value is given as “cause hyperemia (red eyes) as a major side effect”.

On to `C[C@@H](N)C1CCN(S(=O)(=O)c2cccc3cnccc23)CC1` [BA-1049], for which, at ROCK1 [2], the “Kinome Screen % inhibition ROCK1” value was over 99%. Further, at ROCK2 [3], the “Kinome Screen % inhibition ROCK2” value is listed as over 99%. Also, the “Kinome Screen % inhibition PKC ε” value at PKC ε is listed as 95%. In addition, the “Kinome Screen % inhibition PKC Δ” value on PKC Δ is under 70%. For the same compound, the “Off-target activity on GRK1” value at GRK1 is “has some activity toward G-protein couple protein kinase1; also recorded: showed binding to G-protein couple protein kinase1 (GRK1)”. Besides, in data set [4], the Brain penetrance entry is “is able to cross the blood brain barrier”. The “Exposure in blood vessels” value in data set [4] is “accumulate at high concentrations in blood vessels”. Also, the IC50 is 599 nM at ROCK2 [5] (ATP at Km, 15 μM, * = higher purity BA-1076); 3900 nM at ROCK1 [13]; 240 nM against ROCK2 [9]. Also, the “ROCK1/ROCK2 (fold difference)” value on ROCK2 [5] is listed as 43.4. Moreover, the “Inhibition of PKA” value on PKA [12] is given as “Neither compound inhibited PKA”. For the same compound, in [6], the “Safety Screen % inhibition SERT” value was “none”. In addition, in data set [7], the “Safety Screen % inhibition NET” value is given as “none”. Also, the “Kinome Screen Other (other off-target kinase)” value at 468-target kinome screen was “none”. For the same compound, in the data set with 468-target kinome screen, the “# Hits <10% binding” value turned out to be 11. In data set [14], the Side effects entry is given as “squinting”. For the same compound, the Fold-difference on ROCK2 [9] (ROCK1 vs ROCK2 IC50 at 10 μM ATP) stood at 16.

As to `C[C@@H](N)[C@H]1CC[C@H](C(=O)Nc2ccncc2)CC1` [Compound Y27432, Y27432], the “Corneal clarity and vision” value in data set [15] is “corneal clarity improved and vision improved”.

In general, IC50 refers to the concentration at which inhibition is half-maximal.
